{
  "source": "patent US11760784B2",
  "about": "“Compositions comprising PEDF-derived short peptides and uses thereof” (BRIM Biotechnology, Inc., priority 2016, dated 2023)",
  "key": {"4-HNE": {"test_system": "4-HNE", "experiment": "4-HNE immunohistochemistry (lipid peroxidation) in cornea and conjunctiva of CEC mice", "assay_type": "in vivo", "conditions": "PDSP from beginning of 14 days in CEC", "text": "For this test, mice were housed in CEC for 14 days and the PDSP treatment started at the beginning of housing in CEC. Then, the production of oxidative stress products (e.g., 4-hydroxy-2-nonenal, 4-HNE) was examined. 4-HNE was found throughout animal tissues, and in higher quantities during oxidative stress due to the increase in the lipid peroxidation. 4-HNE contains a reactive aldehyde, which may modify proteins. The 4-HNE-modified proteins may be detected with antibodies specific for the 4-HNE moiety.\nOxidative stress-induced lipid peroxidation was assessed by immunohistochemical detection of 4-hydroxy-2-nonenal (4HNE) in the cornea and conjunctiva. Formalin-fixed, paraffin-embedded eye specimens were deparaffinized in xylene and rehydrated in a graded series of ethanol concentrations. Slides were blocked with 10% goat serum for 60 min and then incubated with primary antibody against 4-HNE (1:100 dilution) (ab46545, Abcam) 4 hours at room temperature. The slides were subsequently incubated with the appropriate peroxidase-labeled goat immunoglobulin (1:500 dilution; Chemicon, Temecula, Calif.) for 20 min and then incubated with chromogen substrate (3,3′-diaminobenzidine) for 2 min before counterstaining with hematoxylin."}, "[1]": {"test_system": "intracellular ROS in rabbit corneal epithelial cells", "experiment": "Intracellular ROS (H2DCFDA probe) in NaCl-treated corneal epithelial cells", "assay_type": "cell-based", "experimental": "We therefore examined the effects of PDSP on the intracellular ROS and GSH levels in NaCl-treated (HOP) rabbit corneal epithelial cells. Briefly, rabbit corneal epithelial cells were pretreated with 10 μM PDSP or a negative control peptide (ConP) for 20 hours, followed by treatment with NaCl to induce hyperosmotic stress. After NaCl treatment for another 24 hours, cells were assessed for ROS using a 2′,7′-dichlorodihydrofluorescein diacetate (H2DCFDA) probe, which is an ROS indicator dye. […]\nIntracellular ROS generation was assayed using 2′,7′-dichlorodihydrofluorescein diacetate (H2DCFDA; Molecular Probes, Eugene, Oreg.) which, when oxidized by ROS, releases the green fluorescent compound 2′,7′-dichlorofluorescein (DCF). […] Fluorescence (excitation, 488 nm; emission, 520 nm) was measured with a Spectra MAX GEMINI Reader (Molecular Devices, Sunnyvale, Calif., USA). The background fluorescence from control wells without the addition of H2DCFDA was subtracted from the experimental readings.\nTo investigate the effect of hyperosmotic stress on the intracellular ROS formation, rabbit corneal epithelial cells were cultured in a hyperosmotic medium (463 mOsM) by adding 90 mM NaCl for 24 hours. The intracellular ROS levels were detected by H2DCFDA probe and measured the formation of DCF-fluorescence by spectrofluorometer."}},
  "data": [
    {"substance": "PDSP: 29mer, residues 93-121 of human PEDF: SLGAEQRTESIIHRALYYDLISSPDIHGT (SEQ ID NO:4) (listed as Homo sapiens)", "values": [
      {"measurement": "4-HNE signal in the conjunctiva", "setting": "4-HNE; versus vehicle", "result": "4-HNE signal was clearly stronger in vehicle-treated eyes than in eyes subjected to the PDSP treatment"},
      {"measurement": "number of cells positively stained for 4-HNE in corneal epithelia", "setting": "4-HNE; NS 1.9±0.6, vehicle 20.1±1.4", "result": "5.3±1.0"},
      {"measurement": "DCF fluorescence without HOP (peptide alone)", "setting": "[1]; 10 μM PDSP, isotonic medium, compared to untreated", "result": "did not increase DCF fluorescence"},
      {"measurement": "suppression of DCF-fluorescence level compared to cells treated with NaCl alone", "setting": "[1]; 10 μM peptide pretreatment 20 hours, then hyperosmotic medium (463 mOsM, 90 mM NaCl) 24 hours", "result": 1.3, "unit": "fold"}
    ]}
  ]
}
